Experimental data published in ChEMBL document CHEMBL1153074, “Novel, achiral aminoheterocycles as selective monoamine reuptake inhibitors” (Bioorg Med Chem Lett, 2009).
Each block holds one molecule with its values, some of them ahead of it.

Columns and labels:
CYP3A4 = CYP3A4 (Homo sapiens, UniProt P08684); experiment: in vitro
Description: Inhibition of CYP3A4 by fluorescence assay

[1] = target: Sodium-dependent dopamine transporter (Homo sapiens, UniProt Q01959)
in vitro [2] = details: human, liver microsomes
Description: Intrinsic clearance in human liver microsomes

hERG (KCNH2) = hERG (KCNH2) (Homo sapiens, UniProt Q12809); experiment: in vitro; details: CHO cells expressing human ERG
Description: Inhibition of human ERG expressed in CHO cells

CYP2D6 = CYP2D6 (Homo sapiens, UniProt P10635); experiment: in vitro
Description: Inhibition of CYP2D6 by fluorescence assay

[3] = target: Sodium-dependent serotonin transporter (Homo sapiens, UniProt P31645)
Caco-2 [4] = details: human, caco-2, 10 µM
Description: (§1) Apparent permeability from apical to basolateral side of human Caco-2 cells at 10 uM after 21 days

[5] = target: Sodium-dependent noradrenaline transporter (Homo sapiens, UniProt P23975)
Caco-2 [6] = details: human, caco-2, 10 µM; remark: listed apart in the source
Description: (§2) Apparent permeability from basolateral to apical side of human Caco-2 cells at 10 uM after 21 days

in vitro [7] = details: human, Caco-2
Description: as §1

in vitro [8] = details: human, Caco-2; remark: listed apart in the source
Description: as §2

Cytochrome P450 3A4 = Cytochrome P450 3A4 (Homo sapiens, UniProt P08684); experiment: Inhibition of CYP3A4 in human liver microsomes after 25 mins; type: ADME, Microsome; details: TDE = time-dependent effect
in vitro [9] = details: human, Caco-2; remark: listed apart in the source
Description: Efflux ratio of apparent permeability from basolateral to apical side to apical to basolateral side in human Caco-2 cells at 10 uM after 21 days

Sodium-dependent noradrenaline transporter, sequence (P23975 whole entry): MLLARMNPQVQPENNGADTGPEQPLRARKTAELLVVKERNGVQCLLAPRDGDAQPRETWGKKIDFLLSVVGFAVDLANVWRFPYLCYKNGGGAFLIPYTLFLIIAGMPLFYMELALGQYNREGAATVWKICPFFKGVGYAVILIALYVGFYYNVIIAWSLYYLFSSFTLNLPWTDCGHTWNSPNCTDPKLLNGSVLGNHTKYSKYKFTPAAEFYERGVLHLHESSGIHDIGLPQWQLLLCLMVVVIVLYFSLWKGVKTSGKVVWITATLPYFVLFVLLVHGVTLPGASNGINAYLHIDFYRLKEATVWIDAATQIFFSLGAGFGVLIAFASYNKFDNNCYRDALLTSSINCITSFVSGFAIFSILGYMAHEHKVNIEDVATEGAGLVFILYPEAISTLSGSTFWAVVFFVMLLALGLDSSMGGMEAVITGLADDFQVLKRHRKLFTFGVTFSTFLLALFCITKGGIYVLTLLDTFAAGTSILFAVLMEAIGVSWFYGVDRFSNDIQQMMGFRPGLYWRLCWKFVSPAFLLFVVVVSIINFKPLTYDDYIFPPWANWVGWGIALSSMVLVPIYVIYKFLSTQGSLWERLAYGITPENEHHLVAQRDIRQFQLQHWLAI
CYP3A4, sequence (P08684 whole entry): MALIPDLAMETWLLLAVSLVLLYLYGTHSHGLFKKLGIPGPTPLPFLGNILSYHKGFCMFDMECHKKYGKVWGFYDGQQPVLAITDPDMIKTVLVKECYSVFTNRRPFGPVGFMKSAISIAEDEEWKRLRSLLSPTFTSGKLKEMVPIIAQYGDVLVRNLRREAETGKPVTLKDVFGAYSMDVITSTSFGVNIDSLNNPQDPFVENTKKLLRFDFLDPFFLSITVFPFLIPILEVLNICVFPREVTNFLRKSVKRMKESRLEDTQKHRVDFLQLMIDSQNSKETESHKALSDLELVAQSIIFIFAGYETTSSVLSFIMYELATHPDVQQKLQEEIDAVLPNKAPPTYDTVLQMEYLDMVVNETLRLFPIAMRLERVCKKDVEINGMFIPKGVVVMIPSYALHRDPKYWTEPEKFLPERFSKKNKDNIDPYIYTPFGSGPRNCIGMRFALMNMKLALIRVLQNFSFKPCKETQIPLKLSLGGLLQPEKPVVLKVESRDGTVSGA
Sodium-dependent serotonin transporter, sequence (P31645 whole entry): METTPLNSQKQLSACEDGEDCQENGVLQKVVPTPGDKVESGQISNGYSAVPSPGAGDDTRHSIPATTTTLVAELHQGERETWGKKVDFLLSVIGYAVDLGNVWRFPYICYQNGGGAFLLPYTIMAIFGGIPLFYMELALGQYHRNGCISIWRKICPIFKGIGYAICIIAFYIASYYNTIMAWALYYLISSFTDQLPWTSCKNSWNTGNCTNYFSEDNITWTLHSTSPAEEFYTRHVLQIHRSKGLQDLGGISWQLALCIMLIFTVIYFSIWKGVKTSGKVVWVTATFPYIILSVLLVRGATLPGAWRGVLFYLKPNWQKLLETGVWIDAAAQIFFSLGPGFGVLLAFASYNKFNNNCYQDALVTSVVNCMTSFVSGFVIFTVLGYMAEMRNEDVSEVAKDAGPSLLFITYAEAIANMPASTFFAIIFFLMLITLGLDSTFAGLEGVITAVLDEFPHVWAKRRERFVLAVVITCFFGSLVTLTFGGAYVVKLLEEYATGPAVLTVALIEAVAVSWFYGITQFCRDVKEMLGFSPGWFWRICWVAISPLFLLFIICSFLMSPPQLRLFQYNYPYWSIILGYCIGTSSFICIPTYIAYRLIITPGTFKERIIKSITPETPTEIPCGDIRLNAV
Sodium-dependent dopamine transporter, sequence (Q01959 whole entry): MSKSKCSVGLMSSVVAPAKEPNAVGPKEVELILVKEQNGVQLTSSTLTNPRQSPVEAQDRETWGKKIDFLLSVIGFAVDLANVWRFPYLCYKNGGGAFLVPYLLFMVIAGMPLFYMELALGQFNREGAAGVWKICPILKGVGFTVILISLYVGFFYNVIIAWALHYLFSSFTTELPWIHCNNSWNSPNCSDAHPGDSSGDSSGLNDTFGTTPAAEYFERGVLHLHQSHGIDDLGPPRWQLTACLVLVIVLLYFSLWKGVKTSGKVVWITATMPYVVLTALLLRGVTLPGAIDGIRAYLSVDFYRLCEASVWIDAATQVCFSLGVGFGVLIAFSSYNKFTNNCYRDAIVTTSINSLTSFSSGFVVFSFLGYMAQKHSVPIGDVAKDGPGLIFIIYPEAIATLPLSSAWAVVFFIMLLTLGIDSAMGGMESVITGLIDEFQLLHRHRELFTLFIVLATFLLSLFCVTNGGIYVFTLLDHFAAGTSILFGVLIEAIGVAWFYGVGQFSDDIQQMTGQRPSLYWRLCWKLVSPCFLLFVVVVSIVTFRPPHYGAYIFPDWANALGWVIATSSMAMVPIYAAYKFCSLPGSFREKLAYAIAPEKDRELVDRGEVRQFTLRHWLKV
hERG (KCNH2), sequence (Q12809 whole entry): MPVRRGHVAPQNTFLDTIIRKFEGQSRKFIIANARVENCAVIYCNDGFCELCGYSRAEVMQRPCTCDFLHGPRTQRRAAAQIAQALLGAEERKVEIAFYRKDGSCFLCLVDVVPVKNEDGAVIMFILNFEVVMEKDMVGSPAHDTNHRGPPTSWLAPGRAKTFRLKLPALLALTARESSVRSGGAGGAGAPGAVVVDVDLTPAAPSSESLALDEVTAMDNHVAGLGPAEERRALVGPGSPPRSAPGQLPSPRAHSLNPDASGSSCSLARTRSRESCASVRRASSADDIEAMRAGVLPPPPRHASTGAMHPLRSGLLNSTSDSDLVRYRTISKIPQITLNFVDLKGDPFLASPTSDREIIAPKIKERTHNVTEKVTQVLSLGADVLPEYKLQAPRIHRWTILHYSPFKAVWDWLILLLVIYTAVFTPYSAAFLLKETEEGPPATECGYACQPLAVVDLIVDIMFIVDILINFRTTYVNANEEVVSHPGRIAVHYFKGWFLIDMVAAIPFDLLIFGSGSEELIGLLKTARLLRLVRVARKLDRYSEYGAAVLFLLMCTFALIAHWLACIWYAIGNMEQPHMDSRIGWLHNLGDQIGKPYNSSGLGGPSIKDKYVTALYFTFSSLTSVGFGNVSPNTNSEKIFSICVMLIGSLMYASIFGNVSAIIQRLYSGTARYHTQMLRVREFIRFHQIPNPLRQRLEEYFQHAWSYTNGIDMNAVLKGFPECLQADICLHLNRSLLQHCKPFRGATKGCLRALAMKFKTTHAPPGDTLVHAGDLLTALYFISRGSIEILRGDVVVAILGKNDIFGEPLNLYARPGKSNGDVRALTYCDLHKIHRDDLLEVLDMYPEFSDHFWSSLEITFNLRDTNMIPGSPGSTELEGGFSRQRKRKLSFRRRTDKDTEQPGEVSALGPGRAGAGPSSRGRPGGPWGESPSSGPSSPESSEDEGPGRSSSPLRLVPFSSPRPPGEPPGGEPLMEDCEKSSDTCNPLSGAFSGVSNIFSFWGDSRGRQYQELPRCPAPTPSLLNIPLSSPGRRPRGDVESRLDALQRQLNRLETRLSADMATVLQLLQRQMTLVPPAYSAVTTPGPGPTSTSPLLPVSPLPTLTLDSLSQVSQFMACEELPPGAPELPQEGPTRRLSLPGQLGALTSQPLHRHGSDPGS
CYP2D6, sequence (P10635 whole entry): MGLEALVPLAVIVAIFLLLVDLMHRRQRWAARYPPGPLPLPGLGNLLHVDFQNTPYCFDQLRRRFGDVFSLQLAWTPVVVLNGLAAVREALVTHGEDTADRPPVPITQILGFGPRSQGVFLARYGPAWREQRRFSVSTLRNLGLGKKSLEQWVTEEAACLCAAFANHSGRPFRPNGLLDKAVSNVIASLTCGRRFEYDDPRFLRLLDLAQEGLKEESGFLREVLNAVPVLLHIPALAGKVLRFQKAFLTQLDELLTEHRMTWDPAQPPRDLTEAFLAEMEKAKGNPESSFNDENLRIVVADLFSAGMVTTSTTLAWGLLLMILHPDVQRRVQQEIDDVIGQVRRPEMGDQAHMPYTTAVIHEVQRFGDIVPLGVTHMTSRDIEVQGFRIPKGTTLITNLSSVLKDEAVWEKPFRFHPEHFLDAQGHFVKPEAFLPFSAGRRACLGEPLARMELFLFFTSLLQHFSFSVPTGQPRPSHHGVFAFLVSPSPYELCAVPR
Cytochrome P450 3A4, sequence (P08684 whole entry): as the sequence (P08684 whole entry) above

- IC20 (CYP3A4): 3 µM
- Ki [1]: 0.2 µM
- microsomal CLint (in vitro [2]): 11 µL/min/mg
- IC20 (CYP2D6): 5 µM
- Ki [3]: 0.0316 µM
SMILES: CNCCC(c1ccccc1)c1ccc2[nH]ccc2c1 (stereo unspecified)
- IC20 (hERG (KCNH2)): < 1 µM

SMILES: Cn1ccc2cc(N(Cc3ccccc3)C3CCNCC3)ccc21
- IC20 (CYP3A4): 5 µM
- Ki [1]: 0.0794 µM
- microsomal CLint (in vitro [2]): 26 µL/min/mg
- IC20 (hERG (KCNH2)): 5.1 µM
- IC20 (CYP2D6): > 50 µM
- Papp (Caco-2 [4]): 7 ×10⁻⁶ cm/s
- Ki [3]: 0.00398 µM
- Ki [5]: 0.0251 µM
- Papp (Caco-2 [6]): 4 ×10⁻⁶ cm/s

SMILES: c1ccc(CN(c2ccc3[nH]ccc3c2)C2CCNCC2)cc1
- IC20 (CYP3A4): 0.1 µM
- microsomal CLint (in vitro [2]): 17 µL/min/mg
- IC20 (hERG (KCNH2)): 1 µM
- IC20 (CYP2D6): 3 µM
- Papp A→B at 10 µM (in vitro [7]): 6 ×10⁻⁶ cm/s
- Papp B→A at 10 µM (in vitro [8]): 6 ×10⁻⁶ cm/s
- inhibition (INH) (Cytochrome P450 3A4): tde

SMILES: NS(=O)(=O)c1cccc(CN(c2ccc3[nH]ccc3c2)C2CCNCC2)c1
- IC20 (CYP3A4): 2 µM
- Ki [1]: 0.0251 µM
- microsomal CLint (in vitro [2]): 2 µL/min/mg
- IC20 (hERG (KCNH2)): > 10 µM
- IC20 (CYP2D6): 3 µM
- Papp A→B at 10 µM (in vitro [7]): 0.7 ×10⁻⁶ cm/s
- Papp B→A at 10 µM (in vitro [8]): 3 ×10⁻⁶ cm/s
- Ki [3]: 0.00631 µM
- Ki [5]: 0.0794 µM
- efflux ratio at 10 µM (in vitro [9]): 4.2

SMILES: c1cc2cc(N(CC3CCOCC3)C3CCNCC3)ccc2[nH]1
- IC20 (CYP3A4): > 50 µM
- Ki [1]: 0.501 µM
- IC20 (CYP2D6): 27 µM
- Ki [3]: 0.0398 µM
- Ki [5]: 0.0398 µM

SMILES: c1ccc(CN(c2ccc3sccc3c2)C2CCNCC2)cc1
- IC20 (CYP3A4): 19 µM
- Ki [1]: 0.2 µM
- microsomal CLint (in vitro [2]): 18 µL/min/mg
- IC20 (hERG (KCNH2)): 1 µM
- IC20 (CYP2D6): 35 µM
- Papp (Caco-2 [4]): 1.4 ×10⁻⁶ cm/s
- Ki [3]: 0.0126 µM
- Ki [5]: 0.2 µM
- Papp (Caco-2 [6]): 0.1 ×10⁻⁶ cm/s

- IC20 (CYP3A4): 2 µM
- Ki [1]: 0.0316 µM
- microsomal CLint (in vitro [2]): 36 µL/min/mg
- IC20 (CYP2D6): 2 µM
- Ki [3]: 0.02 µM
- Ki [5]: 0.01 µM
SMILES: c1ccc(CN(c2ccc3[nH]ccc3c2)C2CCNC2)cc1 (stereo unspecified)
- IC20 (hERG (KCNH2)): < 1 µM

- IC20 (CYP3A4): 2 µM
- Ki [1]: 0.501 µM
- IC20 (CYP2D6): 40 µM
- Ki [3]: 0.398 µM
- Ki [5]: 0.2 µM
SMILES: CNCCN(c1ccccc1)c1ccc2[nH]ccc2c1

SMILES: N#Cc1ccccc1CN(c1ccc2[nH]ccc2c1)C1CCNCC1
- Ki [1]: 0.501 µM
- Ki [3]: 0.00398 µM
- Ki [5]: 0.00631 µM

SMILES: c1ccc(CCN(c2ccc3[nH]ccc3c2)C2CCNCC2)cc1
- Ki [1]: 0.158 µM
- Ki [3]: 0.00631 µM
- Ki [5]: 0.0501 µM

- IC20 (CYP3A4): 0.3 µM
- Ki [1]: 0.0398 µM
- microsomal CLint (in vitro [2]): 23 µL/min/mg
- IC20 (CYP2D6): 5 µM
- Ki [3]: 0.00631 µM
- Ki [5]: 0.0631 µM
SMILES: c1ccc(CN(c2ccc3[nH]ccc3c2)C2CCCNC2)cc1 (stereo unspecified)
- IC20 (hERG (KCNH2)): < 1 µM

SMILES: c1ccc(CN(c2ccc3[nH]ncc3c2)C2CCNCC2)cc1
- IC20 (CYP3A4): 0.5 µM
- Ki [1]: 0.0501 µM
- IC20 (hERG (KCNH2)): < 1 µM
- IC20 (CYP2D6): 0.4 µM
- Ki [3]: 0.00126 µM
- Ki [5]: 0.0158 µM

SMILES: Fc1ccccc1CN(c1ccc2[nH]ccc2c1)C1CCNCC1
- Ki [1]: 0.126 µM
- Ki [3]: 0.00398 µM
- Ki [5]: 0.0126 µM

SMILES: COc1cccc(CN(c2ccc3[nH]ccc3c2)C2CCNCC2)c1
- Ki [1]: 0.0794 µM
- IC20 (hERG (KCNH2)): 1 µM
- Ki [3]: 0.00158 µM
- Ki [5]: 0.00398 µM

SMILES: N#Cc1ccc(CN(c2ccc3[nH]ccc3c2)C2CCNCC2)cc1
- Ki [1]: 0.794 µM
- Ki [3]: 0.00251 µM
- Ki [5]: 1 µM

SMILES: CC(c1ccccc1)N(c1ccc2[nH]ccc2c1)C1CCNCC1 (stereo unspecified)
- Ki [1]: 1.58 µM
- Ki [3]: 0.0398 µM
- Ki [5]: 1.58 µM

SMILES: Fc1ccc(CN(c2ccc3[nH]ccc3c2)C2CCNCC2)cc1
- Ki [1]: 0.251 µM
- Ki [3]: 0.002 µM
- Ki [5]: 0.251 µM

SMILES: Fc1cccc(CN(c2ccc3[nH]ccc3c2)C2CCNCC2)c1
- Ki [1]: 0.0794 µM
- Ki [3]: 0.00126 µM
- Ki [5]: 0.0126 µM

SMILES: c1ccc(N(c2ccc3[nH]ccc3c2)C2CCNCC2)cc1
- IC20 (CYP3A4): 26 µM
- Ki [1]: > 1.58 µM
- IC20 (CYP2D6): 14 µM
- Ki [3]: 1 µM
- Ki [5]: 1.26 µM

SMILES: N#Cc1cccc(CN(c2ccc3[nH]ccc3c2)C2CCNCC2)c1
- IC20 (CYP3A4): 2 µM
- Ki [1]: 0.0316 µM
- microsomal CLint (in vitro [2]): 13 µL/min/mg
- IC20 (hERG (KCNH2)): < 1 µM
- IC20 (CYP2D6): 0.5 µM
- Papp A→B at 10 µM (in vitro [7]): 4 ×10⁻⁶ cm/s
- Papp B→A at 10 µM (in vitro [8]): 14 ×10⁻⁶ cm/s
- Ki [3]: 0.000251 µM
- Ki [5]: 0.01 µM
- efflux ratio at 10 µM (in vitro [9]): 3.6
